Reference: ChEMBL document CHEMBL1142530, “Chalcogenopyrylium dyes as inhibitors/modulators of P-glycoprotein in multidrug-resistant cells” (Bioorg Med Chem, 2008)
pEC50, pIC50, pKi: −log10 of the molar value. The source made the active and inactive calls. The calls are words filed in the database; no cut-off is given here.

Legend:
Mus musculus [1] = species on record: Mus musculus; test: Inhibition of verapamil-induced residual ATPase activity in lipid activated mouse P-glycoprotein mdr3 cys-less mutant assessed as ATP hydrolysis per ug of protein
[2] = Inhibition of verapamil-induced ATPase activity in lipid activated mouse P-glycoprotein mdr3 cys-less mutant assessed as ATP hydrolysis per ug of protein
[3] = Octanol-water partition coefficient, log P after 5 hrs by shake flask method; assay type: physicochemical
MDCK-II [4] = test: Apparent permeability from basolateral to apical side of MDCK2 cells over expressing MDR1 at 5 uM after 1 hr; assay type: functional, cell-based; settings: Canis lupus familiaris
MDCK-II [5] = test: Enhancement of calcein-AM uptake in MDCK2 cells over expressing MDR1 after 20 mins; assay type: functional, cell-based; settings: Canis lupus familiaris
MDCK-II [6] = test: Apparent permeability from apical to basolateral side of MDCK2 cells over expressing MDR1 at 5 uM after 1 hr in presence of 25 uM LSN335984; assay type: functional, cell-based; settings: Canis lupus familiaris
MDCK-II [7] = test: Apparent permeability from apical to basolateral side of MDCK2 cells over expressing MDR1 after 1 hr; assay type: functional, cell-based; settings: Canis lupus familiaris
MDCK-II [8] = test: Apparent permeability from basolateral to apical side of MDCK2 cells over expressing MDR1 after 1 hr; assay type: functional, cell-based; settings: Canis lupus familiaris
MDCK-II [9] = test: Passive apparent permeability across MDCK2 cells over expressing MDR1 in presence of 25 uM LSN335984 after 1 hr; assay type: functional, cell-based; settings: Canis lupus familiaris
[10] = target: T1, MDR1 (ABCB1, P-glycoprotein) (Homo sapiens, UniProt P08183); test: (§1) Inhibition of MDR1 overexpressed in MDCK cells at 25 uM relative to LSN335984; assay type: cell-based; settings: dog, MDCK-MDR1
T1 sequence (P08183 whole entry): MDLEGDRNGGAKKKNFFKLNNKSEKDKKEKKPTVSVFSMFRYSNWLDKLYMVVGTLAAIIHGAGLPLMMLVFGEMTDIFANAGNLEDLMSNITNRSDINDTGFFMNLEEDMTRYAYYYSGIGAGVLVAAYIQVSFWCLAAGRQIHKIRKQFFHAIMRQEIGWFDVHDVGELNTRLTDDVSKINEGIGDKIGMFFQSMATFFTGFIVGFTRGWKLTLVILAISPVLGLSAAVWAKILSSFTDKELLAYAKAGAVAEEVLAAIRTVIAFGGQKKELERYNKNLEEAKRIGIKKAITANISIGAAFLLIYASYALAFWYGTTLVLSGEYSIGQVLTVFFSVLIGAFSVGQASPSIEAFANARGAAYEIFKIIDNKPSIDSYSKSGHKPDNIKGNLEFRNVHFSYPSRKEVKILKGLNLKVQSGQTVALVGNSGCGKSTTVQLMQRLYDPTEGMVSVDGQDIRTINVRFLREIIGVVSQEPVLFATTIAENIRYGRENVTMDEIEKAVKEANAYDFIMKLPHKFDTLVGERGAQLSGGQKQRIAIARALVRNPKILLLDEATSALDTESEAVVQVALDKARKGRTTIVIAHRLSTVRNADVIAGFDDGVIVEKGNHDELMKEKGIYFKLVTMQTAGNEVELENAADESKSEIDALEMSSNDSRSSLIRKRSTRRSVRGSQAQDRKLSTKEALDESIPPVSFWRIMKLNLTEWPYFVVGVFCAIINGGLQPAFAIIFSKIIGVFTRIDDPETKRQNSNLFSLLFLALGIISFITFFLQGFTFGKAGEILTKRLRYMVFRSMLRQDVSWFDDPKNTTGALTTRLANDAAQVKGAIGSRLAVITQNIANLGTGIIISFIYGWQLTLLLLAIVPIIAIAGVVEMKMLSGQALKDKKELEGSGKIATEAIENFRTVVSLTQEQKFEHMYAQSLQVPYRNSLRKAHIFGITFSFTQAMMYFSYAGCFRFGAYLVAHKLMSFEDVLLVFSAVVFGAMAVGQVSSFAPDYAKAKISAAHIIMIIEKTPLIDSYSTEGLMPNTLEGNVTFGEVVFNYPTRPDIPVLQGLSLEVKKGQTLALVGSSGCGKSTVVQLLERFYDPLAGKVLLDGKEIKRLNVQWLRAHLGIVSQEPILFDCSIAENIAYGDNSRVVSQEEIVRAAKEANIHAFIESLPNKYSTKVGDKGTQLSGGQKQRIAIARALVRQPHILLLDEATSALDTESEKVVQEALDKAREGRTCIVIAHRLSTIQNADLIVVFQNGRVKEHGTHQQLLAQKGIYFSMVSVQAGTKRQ

MDCK-II [11] = test: Apparent permeability from basolateral to apical side of MDCK2 cells over expressing MDR1 at 5 uM after 1 hr in presence of 25 uM LSN335984; assay type: functional, cell-based; settings: Canis lupus familiaris
Mus musculus [12] = species on record: Mus musculus; test: Inhibition of verapamil-induced specific ATPase activity in lipid activated mouse P-glycoprotein mdr3 cys-less mutant assessed as ATP hydrolysis per ug of protein at 100 uM
[13] = target: T1, MDR1 (ABCB1, P-glycoprotein); test: Inhibition of MDR1 overexpressed in MDCK cells at 5 uM relative to LSN335984; assay type: cell-based; settings: dog
MDCK-II [14] = test: Efflux ratio of permeability from basolateral to apical side to apical to basolateral side in MDCK2 cells over expressing MDR1 to permeability from basolateral to apical side to apical to basolateral side in MDCK2 cells over expressing MDR1 in presence of 25 uM LSN335984; assay type: functional, Canis lupus familiaris
Mus musculus [15] = species on record: Mus musculus; test: Inhibition of verapamil-induced ATPase activity in lipid activated mouse P-glycoprotein mdr3 cys-less mutant assessed as ATP hydrolysis at 100 uM
[16] = Inhibition of [3H]vinblastine transport in human PEAK stable cells over expressing MDR1 assessed as [3H]vinblastine accumulation after 2.5 mins; assay type: functional, cell-based
MDCK-II [17] = test: Inhibition of [3H]vinblastine transport in MDCK2 cells over expressing MDR1 assessed as [3H]vinblastine accumulation after 2.5 mins; assay type: functional, cell-based; settings: Canis lupus familiaris
Mus musculus [18] = species on record: Mus musculus; test: Activity of verapamil-dependent ATPase in lipid activated cys-less mouse mdr3 P-glycoprotein assessed per ug of protein
[19] = target: ATP-dependent translocase ABCB1 (Homo sapiens, UniProt P08183); test: as §1; assay type: cell-based; settings: dog, mdck, 25 µM
Chain of ATP-dependent translocase ABCB1 (P08183 whole entry): as above

Mus musculus [20] = species on record: Mus musculus; test: (§2) Activity of verapamil-dependent ATPase in lipid activated mouse P-glycoprotein mdr3 cys-less mutant
[21] = as §2
[22] = Binding affinity to P-glycoprotein in presence of Escherichia coli sham lipids
DNA = test: Binding affinity to calf thymus DNA relative to control; assay type: nucleic-acid assay; settings: Bos taurus

| SMILES | Activity (Mus musculus [1]) [nmol/min] | pIC50 [2] | logP at 5 h [3] | Activity (Mus musculus [12]) [nmol/min] | permeability (MDCK-II [4]) [%] | pEC50 (MDCK-II [5]) | permeability (MDCK-II [6]) [%] | permeability (MDCK-II [7]) [×10⁻⁶ cm/s] | permeability (MDCK-II [8]) [×10⁻⁶ cm/s] | Papp (MDCK-II [9]) [×10⁻⁶ cm/s] | inhibition at 25 µM [10] [%] | permeability (MDCK-II [11]) [%] | inhibition at 5 µM [13] [%] | Ratio (MDCK-II [14]) | also measured |
| --- | --- | --- | --- | --- | --- | --- | --- | --- | --- | --- | --- | --- | --- | --- | --- |
| CN(C)c1ccc(-c2cc(-c3ccc(N)cc3)[s+]c(-c3ccc(N(C)C)cc3)c2)cc1.F[P-](F)(F)(F)(F)F | 1.6 | 6.15 | 2.2 | 0.93 | 19 | 4.46 | 16 | 5.3 | 4.2 | 3.2 | 16 | 17 | 2 | 1.6 | – |
| CN(C)c1ccc(-c2cc(-c3ccc(N)cc3)[se+]c(-c3ccc(N)cc3)c2)cc1.F[P-](F)(F)(F)(F)F | 2.5 | < 4.00 | 2.2 | – | 12 | 4.60 | 14 | 0.34 | 4.5 | 0.28 | 29 | 10 | 6 | 17 | Activity (Mus musculus [15]): inactive |
| CN(C)c1ccc(-c2cc(-c3cccs3)cc(-c3ccc(N(C)C)cc3)[te+]2)cc1 | 0.9 | 5.10 | 2.2 | – | – | – | – | – | – | – | – | – | – | – | – |
| Nc1ccc(-c2cc(-c3ccc(N4CCOCC4)cc3)cc(-c3ccc(N4CCOCC4)cc3)[s+]2)cc1 | 0.7 | 4.96 | 2.1 | – | – | – | – | – | – | – | – | – | – | – | – |
| Cc1cc(C)c(-c2cc(-c3ccc(N(C)C)cc3)[te+]c(-c3ccc(N(C)C)cc3)c2)c(C)c1.F[P-](F)(F)(F)(F)F | 0.4 | 5.92 | 2.4 | 0.44 | 3 | 5.27 | 7 | 0.85 | 0.42 | 0.48 | – | 5 | 32 | 1.4 | pIC50 [16]: 5.37; pIC50 (MDCK-II [17]): 5.02; Vmax (Mus musculus [18]): 2.67 nmol/min; inhibition (INH) [19]: 230%; Km (Mus musculus [20]): 16 µM; pKi [21]: 7.40 |
| CN(C)c1ccc(-c2cc(-c3ccccc3)[s+]c(-c3ccc(N)cc3)c2)cc1.F[P-](F)(F)(F)(F)F | 0.9 | 5.28 | 0 | – | 24 | 4.85 | 19 | 0.37 | 17 | 0.31 | 14 | 20 | 7 | 70 | – |
| CN(C)c1ccc(-c2cc(-c3ccccc3)[se+]c(-c3ccc(N)cc3)c2)cc1.F[P-](F)(F)(F)(F)F | – | – | 0.8 | – | 18 | 4.70 | 18 | 0.35 | 12 | 0.28 | 22 | 13 | 5 | 57 | – |

Now from value to molecule, other results behind:

| Activity (Mus musculus [1]) [nmol/min] | pIC50 [2] | logP at 5 h [3] | Activity (Mus musculus [12]) [nmol/min] | SMILES | permeability (MDCK-II [4]) [%] | pEC50 (MDCK-II [5]) | permeability (MDCK-II [6]) [%] | permeability (MDCK-II [7]) [×10⁻⁶ cm/s] | permeability (MDCK-II [8]) [×10⁻⁶ cm/s] | Papp (MDCK-II [9]) [×10⁻⁶ cm/s] | inhibition at 25 µM [10] [%] | permeability (MDCK-II [11]) [%] | inhibition at 5 µM [13] [%] | Ratio (MDCK-II [14]) | also measured |
| --- | --- | --- | --- | --- | --- | --- | --- | --- | --- | --- | --- | --- | --- | --- | --- |
| 0.9 | 5.24 | 1.2 | – | Cc1cc(-c2ccc(N(C)C)cc2)[s+]c(-c2ccc(N(C)C)cc2)c1 | – | – | – | – | – | – | – | – | – | – | – |
| 1 | 5.51 | 1.3 | – | c1ccc(-c2cc(-c3ccc(N4CCOCC4)cc3)[s+]c(-c3ccc(N4CCOCC4)cc3)c2)cc1 | – | – | – | – | – | – | – | – | – | – | – |
| 1 | 4.52 | 2.1 | – | c1ccc(-c2cc(-c3ccc(N4CCOCC4)cc3)cc(-c3ccc(N4CCOCC4)cc3)[s+]2)cc1 | – | – | – | – | – | – | – | – | – | – | – |
| 0.5 | 4.82 | 0.6 | 0.48 | Cc1cc(-c2ccc(N(C)C)cc2)cc(-c2ccc(N(C)C)cc2)[s+]1.[I-] | 25 | 4.80 | 24 | 0.58 | 5.1 | 0.42 | 74 | 17 | 13 | 14 | Kapp [22]: 4.5 ×10⁻⁶ M; Activity (DNA): > 60 |
| 1.4 | 6.06 | 1.5 | 0.7 | CN(C)c1ccc(-c2cc(-c3ccc(N(C)C)cc3)[s+]c(C(C)(C)C)c2)cc1.[I-] | 37 | 5.15 | 44 | 0.53 | 34 | 0.34 | 60 | 25 | 25 | 134 | Kapp [22]: 4.7 ×10⁻⁷ M; Activity (DNA): > 60 |
| – | – | 1.6 | – | CN(C)c1ccc(-c2cc(-c3ccc(N(C)C)cc3)[se+]c(C(C)(C)C)c2)cc1.[I-] | 26 | 5.17 | 37 | 0.23 | 29 | 0.28 | 67 | 23 | 23 | 161 | – |
| 1.3 | 6.00 | 0.1 | 0.74 | CCc1cc(-c2ccc(N(C)C)cc2)cc(-c2ccc(N(C)C)cc2)[s+]1 | – | – | – | – | – | – | – | – | – | – | – |
| 2.5 | < 4.00 | 1.2 | 1.37 | CCCc1cc(-c2ccc(N(C)C)cc2)cc(-c2ccc(N(C)C)cc2)[s+]1.[I-] | 11 | 5.01 | 8 | 0.15 | 37 | 2.2 | 87 | 11 | 15 | 390 | Kapp [22]: 2.2 ×10⁻⁶ M; Activity (Mus musculus [15]): inactive; Activity (DNA): > 60 |
| 0.4 | 4.26 | 2.3 | – | CN(C)c1ccc(-c2cc(-c3ccc(N4CCOCC4)cc3)[se+]c(-c3ccc(N4CCOCC4)cc3)c2)cc1 | – | – | – | – | – | – | – | – | – | – | – |
| 0 | 4.15 | 2.1 | 0.3 | Cc1cc(C)c(-c2cc(-c3ccc(N(C)C)cc3)[s+]c(-c3ccc(N(C)C)cc3)c2)c(C)c1 | – | – | – | – | – | – | – | – | – | – | – |
